CC1(C)CCC2=C(O1)c1ccccc1C(=O)C2=O
solubility (mole fraction)
Conditions	298.15 K	303.15 K	308.15 K	313.15 K	318.15 K
in acetone	0.0205	0.0216	0.0245	0.0296	0.0342
in acetonitrile	0.018	0.0209	0.0227	0.0269	0.0325
in ethanol	0.00499	0.00595	0.00664	0.00909	0.0134
in ethyl acetate	0.00853	0.00936	0.0104	0.0121	0.0165
in isopropanol	0.00376	0.00432	0.00528	0.00754	0.0111
in methanol	0.0054	0.00654	0.0076	0.0101	0.0153
in n-butanol	0.00743	0.00895	0.0108	0.0142	0.0203
in n-propanol	0.00669	0.00793	0.00969	0.0146	0.0203
in propylene glycol	0.00306	0.00308	0.0037	0.00531	0.00724
in sec-butanol	0.00565	0.00671	0.0079	0.0104	0.0162
in water	2.85e-06	3.72e-06	4.46e-06	5.26e-06	6.12e-06

— BigSolDB 2.1
